Measurements published in patent US20230295096A1, “PYRAZOLE CARBOXAMIDE COMPOUNDS FOR TREATMENT OF HBV” (ASSEMBLY BIOSCIENCES, INC., priority 2020, published 2023).

The compounds below were run on HBV (assay: Viral load production from HepAD38 cells, qPCR of the HBV core sequence in supernatant). Settings: HepAD38 cells, 5 days, HBV DNA in supernatant by qPCR; Table 1 ranges; read-out: Activity (viral load lowering EC50).
Assay type: cell-based
In short: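 EC50 and CC50 come from four-parameter logistic fits of supernatant HBV core DNA (TaqMan qPCR, DNA standards, compared with DMSO wells) and of CellTiter-Glo luminescence.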

With Cn1nc(C2CC3CC(O)(CNc4ncc(F)cn4)CC3C2)c(C(=O)Nc2ccc(F)c(Cl)c2)c1N (stereo not shown) [Example 213] as the compound, how does the EC50 read?
Its EC50 is 10 to 50 nM.

Same assay, conditions: Hepatitis B virus, HePAD38, 120 h, HepAD38 cells, 5 days, HBV DNA in supernatant by qPCR; Table 1 ranges; read-out: Activity (viral load lowering EC50)

For Cn1ncnc1C1(O)CC2CC(c3nn(C)c(N)c3C(=O)Nc3ccc(F)c(Cl)c3)CC2C1 (stereo not shown) [Example 193], which EC50 is on record?
The EC50 was under 10 nM.

Cn1nc(Br)c(C2(O)CC3CC(c4nn(C)c(N)c4C(=O)Nc4ccc(F)c(Cl)c4)CC3C2)n1 (stereo not shown) [Example 194] was tested. Which EC50 did it give?
The EC50 was under 10 nM.

Cn1ncc(C2(O)CC3CC(c4nn(C)c(N)c4C(=O)Nc4ccc(F)c(Cl)c4)CC3C2)n1 (stereo not shown) [Example 195] was tested. Which EC50 did it give?
The EC50 was under 10 nM.

Which EC50 does the source give for CCn1nccc1C1(O)CC2CC(c3nn(C)c(N)c3C(=O)Nc3ccc(F)c(Cl)c3)CC2C1 (stereo not shown) [Example 196] here?
Its EC50 is under 10 nM.

With Cn1nc(C2CC3C=C(c4ccn[nH]4)CC3C2)c(C(=O)Nc2ccc(F)c(Cl)c2)c1N (stereo not shown) [Example 197] as the compound, how does the EC50 read?
Its EC50 is under 10 nM.

C=C(n1cccn1)C1(O)CC2CC(c3nn(C)c(N)c3C(=O)Nc3ccc(F)c(Cl)c3)CC2C1 (stereo not shown) [Example 198] was tested. Which EC50 did it give?
The EC50 was under 10 nM.

With CC(n1cccn1)C1(O)CC2CC(c3nn(C)c(N)c3C(=O)Nc3ccc(F)c(Cl)c3)CC2C1 (stereo not shown) [Example 199] as the compound, how does the EC50 read?
The EC50 was under 10 nM.

How did the EC50 turn out when CC(C)n1nccc1C1(O)CC2CC(c3nn(C)c(N)c3C(=O)Nc3ccc(F)c(Cl)c3)CC2C1 (stereo not shown) [Example 200] was run?
The EC50 was under 10 nM.

How did the EC50 turn out when Cn1nc(C2CC3CC(O)(CNc4ncc(F)cn4)CC3C2)c(C(=O)Nc2ccc(F)c(Cl)c2)c1N (stereo not shown) [Example 201] was run?
Its EC50 is under 10 nM.

Which EC50 does the source give for CC(C)n1nc([N+](=O)[O-])cc1C1(O)CC2CC(c3nn(C)c(N)c3C(=O)Nc3ccc(F)c(Cl)c3)CC2C1 (stereo not shown) [Example 206] here?
Its EC50 is under 10 nM.

Which EC50 does the source give for Cn1nc(C(F)(F)F)c(C2(O)CC3CC(c4nn(C)c(N)c4C(=O)Nc4ccc(F)c(Cl)c4)CC3C2)n1 (stereo not shown) [Example 207] here?
The EC50 was under 10 nM.

Cn1nc(C2CC3CC(O)(c4c(Cl)cnn4C)CC3C2)c(C(=O)Nc2ccc(F)c(Cl)c2)c1N (stereo not shown) [Example 208] was tested. Which EC50 did it give?
The EC50 was under 10 nM.

With Cn1nc(C2CC3CC(O)(c4c(F)cnn4C)CC3C2)c(C(=O)Nc2ccc(F)c(Cl)c2)c1N (stereo not shown) [Example 209] as the compound, how does the EC50 read?
The EC50 was under 10 nM.

CCn1nc(N)cc1C1(O)CC2CC(c3nn(C)c(N)c3C(=O)Nc3ccc(F)c(Cl)c3)CC2C1 (stereo not shown) [Example 210] was tested. Which EC50 did it give?
Its EC50 is under 10 nM.

Which EC50 does the source give for CC(C)n1nc(N)cc1C1(O)CC2CC(c3nn(C)c(N)c3C(=O)Nc3ccc(F)c(Cl)c3)CC2C1 (stereo not shown) [Example 211] here?
Its EC50 is under 10 nM.

How did the EC50 turn out when Cn1nc(C2CC3CC(O)(c4n[nH]cc4C(F)(F)F)CC3C2)c(C(=O)Nc2ccc(F)c(Cl)c2)c1N (stereo not shown) [Example 212] was run?
Its EC50 is under 10 nM.

CCn1nc(N)cc1C1=CC2CC(c3nn(C)c(N)c3C(=O)Nc3ccc(F)c(Cl)c3)CC2C1 (stereo not shown) [Example 214] was tested. Which EC50 did it give?
The EC50 was under 10 nM.

Cn1nc(C2CC3CC(O)(c4cc(N)nn4C4CC4)CC3C2)c(C(=O)Nc2ccc(F)c(Cl)c2)c1N (stereo not shown) [Example 215] was tested. Which EC50 did it give?
Its EC50 is under 10 nM.

With Cn1nc(C2CC3C=C(c4cc(N)nn4C4CC4)CC3C2)c(C(=O)Nc2ccc(F)c(Cl)c2)c1N (stereo not shown) [Example 216] as the compound, how does the EC50 read?
The EC50 was 10 to 50 nM.

Which EC50 does the source give for Cc1cc(C2(O)CC3CC(c4nn(C)c(N)c4C(=O)Nc4ccc(F)c(Cl)c4)CC3C2)n(C)n1 (stereo not shown) [Example 217] here?
The EC50 was under 10 nM.

How did the EC50 turn out when Cn1nc(C2CC3CC(O)(c4cc([N+](=O)[O-])nn4C4CC4)CC3C2)c(C(=O)Nc2ccc(F)c(Cl)c2)c1N (stereo not shown) [Example 218] was run?
The EC50 was under 10 nM.

With Cn1cc(C(F)(F)F)c(C2(O)CC3CC(c4nn(C)c(N)c4C(=O)Nc4ccc(F)c(Cl)c4)CC3C2)n1 (stereo not shown) [Example 219] as the compound, how does the EC50 read?
Its EC50 is under 10 nM.

For Cn1cc(C2(O)CC3CC(c4nn(C)c(N)c4C(=O)Nc4ccc(F)c(Cl)c4)CC3C2)c(C(F)(F)F)n1 (stereo not shown) [Example 220], which EC50 is on record?
Its EC50 is under 10 nM.

Cn1nc(C2CC3CC(O)(c4c(Cl)c(N)nn4C)CC3C2)c(C(=O)Nc2ccc(F)c(Cl)c2)c1N (stereo not shown) [Example 221] was tested. Which EC50 did it give?
Its EC50 is under 10 nM.

How did the EC50 turn out when Cn1nc(C2CC3CC(O)(c4c[nH]nc4C(F)(F)F)CC3C2)c(C(=O)Nc2ccc(F)c(C#N)c2)c1N (stereo not shown) [Example 222] was run?
The EC50 was under 10 nM.

How did the EC50 turn out when Cn1nc(C2CC3CC(O)(c4cc(C(F)(F)F)n[nH]4)CC3C2)c(C(=O)Nc2ccc(F)c(Cl)c2)c1N (stereo not shown) [Example 223] was run?
Its EC50 is under 10 nM.

With Cn1nc(C2CC3CC(O)(c4[nH]nc(C(F)(F)F)c4Br)CC3C2)c(C(=O)Nc2ccc(F)c(Cl)c2)c1N (stereo not shown) [Example 224] as the compound, how does the EC50 read?
Its EC50 is 10 to 50 nM.

Which EC50 does the source give for COC(=O)CCC(=O)OCn1cc(C2(O)CC3CC(c4nn(C)c(N)c4C(=O)Nc4ccc(F)c(Cl)c4)CC3C2)c(C(F)(F)F)n1 (stereo not shown) [Example 226] here?
Its EC50 is under 10 nM.

COCCOCCOCCOCCOCCOCCOC(=O)OCn1cc(C2(O)CC3CC(c4nn(C)c(N)c4C(=O)Nc4ccc(F)c(Cl)c4)CC3C2)c(C(F)(F)F)n1 (stereo not shown) [Example 228] was tested. Which EC50 did it give?
The EC50 was under 10 nM.

With COCCOCCOCCOCCOCCOCCOCCOC(=O)OCn1cc(C2(O)CC3CC(c4nn(C)c(N)c4C(=O)Nc4ccc(F)c(Cl)c4)CC3C2)c(C(F)(F)F)n1 (stereo not shown) [Example 229] as the compound, how does the EC50 read?
Its EC50 is under 10 nM.

For Cn1nc(C2CC3CC(O)(c4cn(COC(=O)CCC(=O)OCc5ccccc5)nc4C(F)(F)F)CC3C2)c(C(=O)Nc2ccc(F)c(Cl)c2)c1N (stereo not shown) [Example 230], which EC50 is on record?
The EC50 was under 10 nM.

How did the EC50 turn out when Cn1nc(C2CC3CC(Oc4ncccn4)CC3C2)c(C(=O)Nc2ccc(F)c(Cl)c2)c1N (stereo not shown) [Example 231] was run?
The EC50 was 10 to 50 nM.

Same assay, conditions: Hepatitis B virus, HePAD38, 120 h, read-out: Activity (viral load lowering EC50), HepAD38 cells, 5 days, HBV DNA in supernatant by qPCR; Table 1 ranges

Which EC50 does the source give for Cn1nc(C2CC3CC(O)(Cc4ccc(S(C)(=O)=O)cn4)CC3C2)c(C(=O)Nc2ccc(F)c(Cl)c2)c1N (stereo not shown) [Exmaple 165] here?
Its EC50 is under 10 nM.
